Laboratory results from US9061030B2, “sGC stimulators” (IRONWOOD PHARMACEUTICALS, INC., priority 2010, dated 2015).

What was measured:
[1] = biological target: T1, Human soluble guanylate cyclase enzyme (hsGC) (Homo sapiens, UniProt Q02108+Q02153); experiment: Purified human sGC enzyme activity assay (with or without SNP); format: biochemical; conditions: 30 μM compound; for sGC Enzyme Activity Increase at 30 μM with SNP: 1 μM SNP, specific activity vs DMSO and SNP; for sGC Enzyme Activity Increase at 30 μM without SNP: specific activity vs DMSO control
T1 construct: purchased Enzo Inc. ALX-201-177
T1 sequence (Q02153 1-619): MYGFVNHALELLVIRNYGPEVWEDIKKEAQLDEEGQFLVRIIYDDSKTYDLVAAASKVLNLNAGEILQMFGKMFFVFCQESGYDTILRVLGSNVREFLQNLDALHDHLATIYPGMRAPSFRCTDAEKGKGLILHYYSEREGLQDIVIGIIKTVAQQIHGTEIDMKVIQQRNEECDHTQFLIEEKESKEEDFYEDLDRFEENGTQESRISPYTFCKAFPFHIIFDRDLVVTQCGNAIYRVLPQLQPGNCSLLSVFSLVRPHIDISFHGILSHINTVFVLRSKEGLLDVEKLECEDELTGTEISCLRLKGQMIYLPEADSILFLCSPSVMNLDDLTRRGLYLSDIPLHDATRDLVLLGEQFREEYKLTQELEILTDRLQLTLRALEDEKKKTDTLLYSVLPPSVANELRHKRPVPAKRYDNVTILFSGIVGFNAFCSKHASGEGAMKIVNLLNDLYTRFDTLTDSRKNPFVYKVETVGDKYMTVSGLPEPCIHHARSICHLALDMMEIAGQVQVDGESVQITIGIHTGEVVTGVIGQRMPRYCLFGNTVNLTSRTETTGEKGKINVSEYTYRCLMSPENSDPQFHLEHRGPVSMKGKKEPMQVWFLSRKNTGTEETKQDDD
T1 sequence (Q02108 1-690): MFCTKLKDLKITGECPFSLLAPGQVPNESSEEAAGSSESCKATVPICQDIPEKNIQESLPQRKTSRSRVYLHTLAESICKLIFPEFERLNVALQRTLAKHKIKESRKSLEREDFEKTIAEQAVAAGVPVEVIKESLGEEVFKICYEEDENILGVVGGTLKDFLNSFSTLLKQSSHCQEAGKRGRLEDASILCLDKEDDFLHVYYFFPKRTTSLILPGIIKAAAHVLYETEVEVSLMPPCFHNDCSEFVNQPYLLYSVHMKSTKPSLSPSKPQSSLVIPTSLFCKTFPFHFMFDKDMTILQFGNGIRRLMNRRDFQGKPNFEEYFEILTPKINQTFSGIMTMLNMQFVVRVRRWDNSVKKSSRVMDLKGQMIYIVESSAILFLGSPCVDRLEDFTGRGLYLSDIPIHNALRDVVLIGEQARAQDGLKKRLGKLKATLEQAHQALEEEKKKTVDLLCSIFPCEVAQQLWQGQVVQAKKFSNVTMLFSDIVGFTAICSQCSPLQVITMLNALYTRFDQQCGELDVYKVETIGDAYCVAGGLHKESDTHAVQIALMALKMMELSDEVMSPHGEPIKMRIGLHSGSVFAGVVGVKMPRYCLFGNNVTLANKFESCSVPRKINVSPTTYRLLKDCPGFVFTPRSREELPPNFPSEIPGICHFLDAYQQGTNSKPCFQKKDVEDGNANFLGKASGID
Procedure: Human soluble guanylate cyclase enzyme (hsGC) obtained from Enzo Inc. (P/N: ALX-201-177) was used to evaluate the activity of test compounds. The assay reactions contained 0.1 M Tris (pH 8.0), 0.5 mg/mL BSA (pH 8.0), 2 mM DTT, 2 mM MgCl2, 300 μM GTP, 1 mM 3-isobutyl-1-methylxanthine (IBMX) and 5 ng human soluble guanylate cyclase enzyme. Test compounds in DMSO were then added (2 μL, 10 or 30 μM final concentration) and incubated (200 μL, 96-well plate format) at 37° C. for 30 minutes. The controls were carried out using 2 μL DMSO. After the 30 minute incubation, the reaction was stopped with the addition of 200 μL of cold methanol. The plate was then centrifuged at 3,200 rpm for 10 minutes at room temperature. Supernatants (200 μL) were collected and transferred to a new 96 well plate for analysis.
An 8 point cGMP (Sigma-Aldrich P/N: G6129) standard curve was prepared in assay buffer ranging from 0.156-20 μM. Samples for the cGMP standard curve were then diluted with an equal volume of methanol resulting in final cGMP concentrations of 0.078-10 μM.
The cGMP standard curve was generated using GraphPad Prism Software.
Calculations: Specific Activity was determined by the amount of cGMP formed (nmoles) per mg of sGC per min. Enzyme activity “fold-change” was calculated by dividing the Specific Activity for a test compound by the Specific Activity of DMSO control.
The enzymatic activity fold-change of the purified human sGC enzyme determined in the presence of each of the test compounds individually at 10 or 30 μm without the addition of sodium nitroprusside (SNP), a nitric oxide donor, is presented in Table 5.
Enzyme assays were also performed as described above, but in the presence of 1 μM sodium nitroprusside (SNP). Enzymatic activity fold-changes are reported for selected test compounds in the presence of both SNP and the test compound. These were calculated by dividing the specific activity (activity increase) for the test compound dissolved in DMSO and SNP over the specific activity for the mixture of DMSO and SNP.

[2] = biological target: T2, soluble guanylate cyclase (sGC) (Homo sapiens, UniProt Q02108+Q02153); experiment: sGC-HEK-cGMP assay; format: cell-based; conditions: HEK293 cells, 10 μM SNP, percentage of sGC activity obtained with positive control BAY 41-2272 (= 100%); for Emax at 10 µM: compound at 10 μM; for Emax at 30 µM: compound at 30 μM
T2 construct: endogenously expressing soluble guanylate cyclase (sGC); endogenous in cells; host or cells: HEK293
T2 sequence (Q02153 1-619): T1 sequence (Q02153 1-619)
T2 sequence (Q02108 1-690): T1 sequence (Q02108 1-690)
Procedure: Human embryonic kidney cells (HEK293), endogenously expressing soluble guanylate cyclase (sGC), were used to evaluate the activity of the test compounds. Compounds stimulating the sGC receptor should cause an increase in the intracellular concentration of cGMP. HEK 293 cells were seeded in Dulbecco's Modification of Eagle's Medium supplemented with fetal bovine serum (10% final) and L-glutamine (2 mM final) in a 200 μL volume at a density of 1×10^5 cells/well in a poly-D-lysine coated 96 well flat bottom plate and grown overnight at 37° C. Medium was aspirated and cells were washed with 1× Hank's Buffered Saline Salt Solution (200 μL). Cells were then incubated for 15 minutes at 37° C. with 0.5 mM 3-isobutyl-1-methylxanthine (200 μL). Test article was then added to the assay mixture (2 μL) and incubated in the presence of 10 μM Sodium Nitroprusside (SNP) at 37° C. for 10 minutes. After the 10 minute incubation, the assay mixture was aspirated and 0.1M HCl (200 μL) was added to the cells. The plate was incubated at 4° C. for 30 minutes in the 0.1M HCl to stop the reaction and lysed the cells. The plates were then centrifuged at 1,200 g for 5 minutes at room temperature. Supernatants were collected and transferred to a new flat bottom 96 well plate for analysis. Vehicle controls were carried out using DMSO (1%). A known sGC stimulator, BAY 41-2272, was used as the positive control.
Samples were diluted with an equal volume of 1 M Ammonium Acetate (pH 7) to neutralize samples for better chromatography. A 2×cGMP standard curve was prepared in 0.1 M HCl and then diluted with an equal volume of 1 M Ammonium Acetate, with the following final concentrations in nM: 1024, 512, 256, 128, 64, 32, 16, 8, 4, 2, 1.cGMP concentrations were determined from each sample using the LC/MS conditions (Table 2 below) and calculated standard curve. EC50 values were calculated from concentration-response curves generated with GraphPad Prism Software.
The biological activities of some of the compounds according to Formula IA or Formula IB determined with the sGC-HEK assay are summarized in Table 3 below.

Row | Compound | sGC Enzyme Activity Increase at 30 μM with SNP [1] | sGC Enzyme Activity Increase at 30 μM without SNP [1] | Emax at 10 µM [2] | Emax at 30 µM [2]
1 | Fc1ccccc1Cn1nc(-c2cscn2)nc1-c1cnccn1 [Compound I-55] | C (C = 2 to <5 fold increase) | B (B = 1 to <2 fold increase) | 0 to 5% | 5 to 10%
2 | Fc1ccccc1Cn1nc(-c2cnccn2)nc1-c1cscn1 [Compound I-56] | D (D = 5 to <10 fold increase) | B (B = 1 to <2 fold increase) | 10 to 20% | 40 to 60%
3 | Nc1nc(-c2nc(-c3nccs3)n(Cc3ccccc3F)n2)nc(N)c1N [Compound I-57, 2-(1-(2-fluorobenzyl)-5-(thiazol-2-yl)-1H-1,2,4-triazol-3-yl)pyrimidin-4,5,6-triamine] | C (C = 2 to <5 fold increase) | B (B = 1 to <2 fold increase) | 0 to 5% | 0 to 5%
4 | Fc1ccccc1Cn1nc(-c2ccccn2)nc1-c1ccon1 [Compound I-58, 3-(1-(2-fluorobenzyl)-3-(pyridin-2-yl)-1H-1,2,4-triazol-5-yl)isoxazole] | D (D = 5 to <10 fold increase) | C (C = 2 to <5 fold increase) | 40 to 60% | 60 to 80%
5 | Fc1ccccc1Cn1nc(-c2ncccn2)nc1-c1ccon1 [Compound I-59, 3-(1-(2-fluorobenzyl)-3-(pyrimidin-2-yl)-1H-1,2,4-triazol-5-yl)isoxazole] | A (A = no increase to <1 fold increase) | A (A = no increase to <1 fold increase) | 0 to 5% | 0 to 5%
6 | COC(=O)Nc1c(N)nc(-c2nc(-c3nccs3)n(Cc3ccccc3F)n2)nc1N [Compound I-60, methyl 4,6-diamino-2-(1-(2-fluorobenzyl)-5-(thiazol-2-yl)-1H-1,2,4-triazol-3-yl)pyrimidin-5-ylcarbamate] | D (D = 5 to <10 fold increase) | B (B = 1 to <2 fold increase) | 10 to 20% | 20 to 40%
7 | Fc1ccccc1Cn1nc(-c2cocn2)nc1-c1nccs1 [Compound I-62] | C (C = 2 to <5 fold increase) | A (A = no increase to <1 fold increase) | 10 to 20% | 5 to 10%
8 | Fc1ccccc1Cn1nc(-c2cc(N3CCOCC3)ccn2)nc1-c1nccs1 [Compound I-65, 4-(2-(1-(2-fluorobenzyl)-5-(thiazol-2-yl)-1H-1,2,4-triazol-3-yl)pyridin-4-yl)morpholine] | E (E = 10 to <20 fold increase) | D (D = 5 to <10 fold increase) | 80 to 100% | 80 to 100%

The next lines start with the values.

Row | sGC Enzyme Activity Increase at 30 μM with SNP [1] | sGC Enzyme Activity Increase at 30 μM without SNP [1] | Emax at 10 µM [2] | Emax at 30 µM [2] | Compound
9 | B (B = 1 to <2 fold increase) | B (B = 1 to <2 fold increase) | 0 to 5% | 0 to 5% | Fc1ccccc1Cn1nc(-c2cscn2)nc1-c1cc(Br)ccn1 [Compound I-52, 4-(5-(4-bromopyridin-2-yl)-1-(2-fluorobenzyl)-1H-1,2,4-triazol-3-yl)thiazole]
10 | D (D = 5 to <10 fold increase) | C (C = 2 to <5 fold increase) | 20 to 40% | 40 to 60% | Fc1ccccc1Cn1nc(-c2cc(Br)ccn2)nc1-c1cocn1 [Compound I-54, 4-(3-(4-bromopyridin-2-yl)-1-(2-fluorobenzyl)-1H-1,2,4-triazol-5-yl)oxazole]
11 | D (D = 5 to <10 fold increase) | B (B = 1 to <2 fold increase) | 60 to 80% | 20 to 40% | Fc1ccccc1Cn1nc(-c2nccs2)nc1-c1cocn1 [Compound I-63]
12 | E (E = 10 to <20 fold increase) | C (C = 2 to <5 fold increase) | 20 to 40% | 40 to 60% | Fc1ccccc1Cn1nc(-c2cc(N3CCOCC3)ccn2)nc1-c1cocn1 [Compound I-68, 4-(2-(1-(2-fluorobenzyl)-5-(oxazol-4-yl)-1H-1,2,4-triazol-3-yl)pyridin-4-yl)morpholine]
